{
  "source": "patent US20240294885A1",
  "about": "“ENGINEERED ENZYMES AND METHODS OF MAKING AND USING” (priority 2021, published 2024)",
  "type_in_all_cases": "biochemical",
  "key": {"[1]": {"target": "Mycobacterium avium CAR (SEQ ID NO:153) Variant 1 of Table 14 (K275D N276S F278S A283C I300G N335D), Variant 37 A282P M296A M389S N401T F425N (Mycobacterium avium, UniProt A0ACD7BNV2, A282P/A283C/F278S/F425N/G391S/I300G/K275D/M296A/M389S/N276S/N335D/N401T)", "assay": "CAR lysate assay with 30 mM 6ACA ± 0.25M HMD (Table 14), Variant 37", "conditions": "Variant 37, Table 14, 6ACA"}, "[2]": {"target": "T1, Mycobacterium avium CAR (SEQ ID NO:153) Variant 1 of Table 14, K275D N276S F278S A283C I300G N335D (Mycobacterium avium, UniProt A0ACD7BNV2, A283C/F278S/G391S/I300G/K275D/N276S/N335D)", "assay": "CAR lysate assay with 30 mM 6ACA ± 0.25M HMD (Table 14), CAR Variant 1", "conditions": "CAR Variant 1, Table 14, 6ACA"}, "[3]": {"target": "Mycobacterium avium CAR (SEQ ID NO:153) Variant 1 of Table 14 (K275D N276S F278S A283C I300G N335D), Variant 33 A282P M296A F425L (Mycobacterium avium, UniProt A0ACD7BNV2, A282P/A283C/F278S/F425L/G391S/I300G/K275D/M296A/N276S/N335D)", "assay": "CAR lysate assay with 30 mM 6ACA ± 0.25M HMD (Table 14), Variant 33", "conditions": "Variant 33, Table 14, 6ACA"}, "[4]": {"target": "Mycobacterium avium CAR (SEQ ID NO:153) Variant 1 of Table 14 (K275D N276S F278S A283C I300G N335D), Variant 12 M296H (Mycobacterium avium, UniProt A0ACD7BNV2, A283C/F278S/G391S/I300G/K275D/M296H/N276S/N335D)", "assay": "CAR lysate assay with 30 mM 6ACA ± 0.25M HMD (Table 14), Variant 12", "conditions": "Variant 12, Table 14, 6ACA"}, "[5]": {"target": "T1, Mycobacterium avium CAR (SEQ ID NO:153) Variant 1 of Table 14, K275D N276S F278S A283C I300G N335D", "assay": "CAR lysate assay with 10 mM 6ACA ± 125 mM HMD or 0.25M HMD (Table 15), CAR Variant 1"}, "[6]": {"target": "Mycobacterium avium CAR (SEQ ID NO:153) Variant 1 of Table 14 (K275D N276S F278S A283C I300G N335D), Variant 38 A282P M296A N401T F425L (Mycobacterium avium, UniProt A0ACD7BNV2, A282P/A283C/F278S/F425L/G391S/I300G/K275D/M296A/N276S/N335D/N401T)", "assay": "CAR lysate assay with 30 mM 6ACA ± 0.25M HMD (Table 14), Variant 38", "conditions": "Variant 38, Table 14, 6ACA"}, "[7]": {"target": "Mycobacterium avium CAR (SEQ ID NO:153) Variant 1 of Table 14 (K275D N276S F278S A283C I300G N335D), Variant 4 S274P (Mycobacterium avium, UniProt A0ACD7BNV2, A283C/F278S/G391S/I300G/K275D/N276S/N335D/S274P)", "assay": "CAR lysate assay with 30 mM 6ACA ± 0.25M HMD (Table 14), Variant 4", "conditions": "Variant 4, Table 14, 6ACA"}, "[8]": {"target": "Mycobacterium avium CAR (SEQ ID NO:153) Variant 1 of Table 14 (K275D N276S F278S A283C I300G N335D), Variant 36 A282P M296A M389S N401T F425L (Mycobacterium avium, UniProt A0ACD7BNV2, A282P/A283C/F278S/F425L/G391S/I300G/K275D/M296A/M389S/N276S/N335D/N401T)", "assay": "CAR lysate assay with 30 mM 6ACA ± 0.25M HMD (Table 14), Variant 36", "conditions": "Variant 36, Table 14, 6ACA"}, "[9]": {"target": "Mycobacterium avium CAR (SEQ ID NO:153) Variant 1 of Table 14 (K275D N276S F278S A283C I300G N335D), Variant 34 A282P M296A F425T (Mycobacterium avium, UniProt A0ACD7BNV2, A282P/A283C/F278S/F425T/G391S/I300G/K275D/M296A/N276S/N335D)", "assay": "CAR lysate assay with 30 mM 6ACA ± 0.25M HMD (Table 14), Variant 34", "conditions": "Variant 34, Table 14, 6ACA"}, "[10]": {"target": "Mycobacterium avium CAR (SEQ ID NO:153) Variant 1 of Table 14 (K275D N276S F278S A283C I300G N335D), Variant 35 A282P M296A M389S F425N (Mycobacterium avium, UniProt A0ACD7BNV2, A282P/A283C/F278S/F425N/G391S/I300G/K275D/M296A/M389S/N276S/N335D)", "assay": "CAR lysate assay with 30 mM 6ACA ± 0.25M HMD (Table 14), Variant 35", "conditions": "Variant 35, Table 14, 6ACA"}, "[11]": {"test_system": "carboxylic acid reductase (CAR)", "conditions": "6ACA as substrate, 30 mM or 10 mM; HMD 125 mM or 0.25M"}},
  "data": [
    {"smiles": "NCCCCCC(=O)O", "note": "[6ACA]", "values": [
      {"measurement": "Vmax", "setting": "[1]", "value": "++ (5.0-10.0)"},
      {"measurement": "Vmax", "setting": "[2]", "value": "+++ (>10.0)"},
      {"measurement": "Vmax", "setting": "[3]", "value": "+ (<5)"},
      {"measurement": "Vmax", "setting": "[4]", "value": "+++ (>10.0)"},
      {"measurement": "Vmax", "setting": "[5]; CAR Variant 1, Table 15, 6ACA", "value": "+++ (>10.0)"},
      {"measurement": "Vmax", "setting": "[6]", "value": "++ (5.0-10.0)"},
      {"measurement": "Vmax", "setting": "[7]", "value": "+++ (>10.0)"},
      {"measurement": "Vmax", "setting": "[8]", "value": "++ (5.0-10.0)"},
      {"measurement": "Vmax", "setting": "[9]", "value": "+ (<5)"},
      {"measurement": "Vmax", "setting": "[10]", "value": "++ (5.0-10.0)"}
    ]},
    {"smiles": "NCCCCCCN", "note": "[HMD, hexamethylenediamine, reference compound]", "values": [
      {"measurement": "inhibition of CAR in the presence of HMD", "setting": "[11]", "value": "inhibited"},
      {"measurement": "% inhibition @ 0.25M HMD & 10 mM 6ACA", "setting": "[5]; CAR Variant 1, 0.25M HMD, 10 mM 6ACA", "value": "++ (60-90)"}
    ]}
  ]
}
